Measured values published in PubChem BioAssay AID256 (DTP/NCI, 2004).
Inconclusive results and toxic doses are left out.

System: CD2F1 mice, L1210 leukemia ip, survival T/C
Experiment: NCI In Vivo Anticancer Drug Screen. Data for tumor model L1210 Leukemia (intraperitoneal) in CD2F1 (CDF1) mice
Conditions: endpoint: mean survival time, higher = longer survival
Method in brief: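 Read-out first: treated-group measurement over vehicle-control measurement, expressed as a ratio. Animals bore a transplanted tumor line and were dosed with compound or vehicle.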

[1] = dose: 100.0 mg/kg/injection, schedule: Q04DX002 (ip), vehicle: saline with Tween-80
[2] = dose: 200.0 mg/kg/injection, schedule: Q04DX002 (ip), vehicle: saline with Tween-80
[3] = dose: 400.0 mg/kg/injection, schedule: Q04DX002 (ip), vehicle: saline with Tween-80
[4] = dose: 200.0 mg/kg/injection, schedule: Q01DX009 (ip), vehicle: saline with Tween-80
[5] = dose: 100.0 mg/kg/injection, schedule: Q01DX009 (ip), vehicle: saline with Tween-80

CO[C@@]12[C@@H]3N[C@@H]3CN1C1=C(C(=O)C(NCCN(C)C)=C(C)C1=O)[C@@H]2COC(N)=O
T/C (dose: 1.5 mg/kg/injection, schedule: Q01DX001 (ip), vehicle: water): 106 % of control | T/C (dose: 3.0 mg/kg/injection, schedule: Q01DX001 (ip), vehicle: distilled water + Tween-80): 116 % of control | T/C (dose: 3.0 mg/kg/injection, schedule: Q01DX001 (ip), vehicle: water): 106 % of control | T/C (dose: 6.0 mg/kg/injection, schedule: Q01DX001 (ip), vehicle: water): 116 % of control | T/C (dose: 24.0 mg/kg/injection, schedule: Q01DX001 (ip), vehicle: distilled water + Tween-80): 96 % of control | T/C (dose: 24.0 mg/kg/injection, schedule: Q01DX001 (ip), vehicle: water): 93 % of control

O=C(NNc1ccccc1)c1ccccc1
T/C (dose: 12.5 mg/kg/injection, schedule: Q01DX009 (ip), vehicle: Klucel (hydroxypropylcellulose) (HPC)): 110 % of control | T/C (dose: 25.0 mg/kg/injection, schedule: Q01DX009 (ip), vehicle: Klucel (hydroxypropylcellulose) (HPC)): 105 % of control | T/C (dose: 50.0 mg/kg/injection, schedule: Q01DX009 (ip), vehicle: Klucel (hydroxypropylcellulose) (HPC)): 106 % of control | T/C (dose: 75.0 mg/kg/injection, schedule: Q01DX009 (ip), vehicle: saline): 96 % of control | T/C [1]: 110 % of control | T/C (dose: 150.0 mg/kg/injection, schedule: Q01DX009 (ip), vehicle: saline): 97 % of control | T/C [2]: 100 % of control | T/C (dose: 300.0 mg/kg/injection, schedule: Q01DX009 (ip), vehicle: saline): 98 % of control | T/C [3]: 110 % of control

CC1=NC(c2ccccn2)=NNC(c2ccccn2)=C1c1ccccc1
T/C (dose: 12.5 mg/kg/injection, schedule: Q01DX009 (ip), vehicle: water): 98 % of control | T/C (dose: 25.0 mg/kg/injection, schedule: Q01DX009 (ip), vehicle: water): 96 % of control | T/C (dose: 50.0 mg/kg/injection, schedule: Q01DX009 (ip), vehicle: water): 98 % of control | T/C (dose: 100.0 mg/kg/injection, schedule: Q01DX009 (ip), vehicle: water): 86 % of control | T/C (dose: 200.0 mg/kg/injection, schedule: Q01DX009 (ip), vehicle: water): 90 % of control

Brc1cn[nH]c1Br
T/C (dose: 100.0 mg/kg/injection, schedule: Q04DX003 (ip), vehicle: saline with Tween-80): 98 % of control | T/C (dose: 200.0 mg/kg/injection, schedule: Q04DX003 (ip), vehicle: saline with Tween-80): 104 % of control | T/C (dose: 400.0 mg/kg/injection, schedule: Q04DX003 (ip), vehicle: saline with Tween-80): 88 % of control

O=C(O)CC(NC(=O)CP(=O)(O)O)C(=O)O (configuration not stated)
T/C (dose: 86.4 mg/kg/injection, schedule: Q01DX009 (ip), vehicle: saline): 98 % of control | T/C (dose: 200.0 mg/kg/injection, schedule: Q01DX009 (ip), vehicle: saline): 112 % of control | T/C (dose: 225.0 mg/kg/injection, schedule: Q01DX009 (ip), vehicle: saline): 116 % of control | T/C (dose: 240.0 mg/kg/injection, schedule: Q01DX009 (ip), vehicle: saline): 105 % of control | T/C (dose: 250.0 mg/kg/injection, schedule: Q01DX009 (ip), vehicle: saline): 115 % of control

COc1ccc(-c2nc(N)c3ncn(C4OC(CO)C(O)C4O)c3n2)cc1 (configuration not stated)
T/C (dose: 12.5 mg/kg/injection, schedule: Q01DX005 (ip), vehicle: distilled water + Tween-80): 98 % of control | T/C (dose: 25.0 mg/kg/injection, schedule: Q01DX005 (ip), vehicle: distilled water + Tween-80): 98 % of control | T/C (dose: 50.0 mg/kg/injection, schedule: Q01DX005 (ip), vehicle: distilled water + Tween-80): 96 % of control | T/C (dose: 200.0 mg/kg/injection, schedule: Q01DX005 (ip), vehicle: distilled water + Tween-80): 88 % of control

CCSc1ncnc2c1ncn2C1OC(CO)C(O)C1O (configuration not stated)
T/C (dose: 132.0 mg/kg/injection, schedule: Q04DX003 (ip), vehicle: saline with Tween-80): 122 % of control | T/C [4]: 171 % of control

CCOC(=O)N[C@H]1CCc2cc(OC)c(OC)c(OC)c2-c2ccc(SC)c(=O)cc21
T/C (dose: 0.38 mg/kg/injection, schedule: Q01DX009 (ip), vehicle: other): 103 % of control | T/C (dose: 0.75 mg/kg/injection, schedule: Q01DX009 (ip), vehicle: other): 108 % of control | T/C (dose: 1.5 mg/kg/injection, schedule: Q01DX009 (ip), vehicle: other): 114 % of control

CCCCCCCCC1SC1CCCCCCCC(=O)OCCN(C)C(=O)CCCCCCCC1SC1CCCCCCCC (configuration not stated)
T/C (dose: 100.0 mg/kg/injection, schedule: Q04DX003 (ip), vehicle: other): 100 % of control | T/C (dose: 200.0 mg/kg/injection, schedule: Q04DX003 (ip), vehicle: other): 92 % of control | T/C (dose: 400.0 mg/kg/injection, schedule: Q04DX003 (ip), vehicle: other): 90 % of control

C[N+]1(C)CC2CCCCC1C2=O (configuration not stated)
T/C (dose: 75.0 mg/kg/injection, schedule: Q01DX001 (ip), vehicle: saline): 111 % of control | T/C (dose: 150.0 mg/kg/injection, schedule: Q01DX001 (ip), vehicle: saline): 101 % of control | T/C (dose: 300.0 mg/kg/injection, schedule: Q01DX001 (ip), vehicle: saline): 98 % of control

CCOC1(C)CCC/C(=N/Nc2ccc([N+](=O)[O-])cc2[N+](=O)[O-])C1 (configuration not stated)
T/C (dose: 100.0 mg/kg/injection, schedule: Q04DX003 (ip), vehicle: Klucel (hydroxypropylcellulose) (HPC)): 97 % of control | T/C (dose: 200.0 mg/kg/injection, schedule: Q04DX003 (ip), vehicle: Klucel (hydroxypropylcellulose) (HPC)): 100 % of control | T/C (dose: 400.0 mg/kg/injection, schedule: Q04DX003 (ip), vehicle: Klucel (hydroxypropylcellulose) (HPC)): 100 % of control

Cc1[nH]nc(C(N)=O)c1N=NN1CCOCC1
T/C (dose: 75.0 mg/kg/injection, schedule: Q01DX001 (ip), vehicle: other): 101 % of control | T/C (dose: 150.0 mg/kg/injection, schedule: Q01DX001 (ip), vehicle: other): 106 % of control | T/C (dose: 300.0 mg/kg/injection, schedule: Q01DX001 (ip), vehicle: other): 109 % of control

CC(=O)OCC1=C(COC(C)=O)C2OC1C(OC(C)=O)C2OC(C)=O (configuration not stated)
T/C [1]: 102 % of control | T/C [2]: 98 % of control | T/C [3]: 94 % of control

COC(=O)CCC(=O)c1ccccc1C
T/C (dose: 100.0 mg/kg/injection, schedule: Q04DX003 (ip), vehicle: acetone): 100 % of control | T/C (dose: 200.0 mg/kg/injection, schedule: Q04DX003 (ip), vehicle: acetone): 100 % of control

Nc1cccc(OCc2ccc([N+](=O)[O-])cc2)c1
T/C (dose: 100.0 mg/kg/injection, schedule: Q04DX002 (ip), vehicle: Klucel (hydroxypropylcellulose) (HPC)): 86 % of control | T/C (dose: 200.0 mg/kg/injection, schedule: Q04DX002 (ip), vehicle: Klucel (hydroxypropylcellulose) (HPC)): 107 % of control | T/C (dose: 400.0 mg/kg/injection, schedule: Q04DX002 (ip), vehicle: Klucel (hydroxypropylcellulose) (HPC)): 95 % of control

O=S(O)C(=Nc1ccccc1)Nc1ccccc1
T/C [5]: 94 % of control | T/C [4]: 106 % of control

COc1ccccc1NC(=S)N(C)C
T/C (dose: 50.0 mg/kg/injection, schedule: Q01DX009 (ip), vehicle: saline with Tween-80): 98 % of control | T/C [5]: 101 % of control | T/C [4]: 98 % of control
